Test results taken from patent publication US20170042989A1, “PHOTOSENSITIZED TRYPANOSOMATIDS AND VACCINE COMPOSITIONS THEREOF” (ROSALIND FRANKLIN UNIVERSITY OF MEDICINE AND SCIENCE, priority 2015, published 2017).

Legend:
Leishmania tropica [1] = experiment: Leishmania uptake of PCs by fluorescence microscopy; format: cell-based; conditions: fluorescent microscopy, Cy5 filter, exposure in the dark
Method: (§1) Leishmania were suspended to 5×10^7-10^8 cells ml^−1 in HBSS-BSA for exposure to serial dilutions of PCs 1-4 in the dark overnight. Controls included cells exposed to diluent alone. J774 macrophages were treated as monolayer in HBSS-BSA or culture medium under otherwise the same conditions. All cultures were kept in the dark for various time periods up to 24 hrs.
Nikon Eclipse 80i and TE2000-S microscopes with CCD cameras were used with Metamorphosis (version 6.1) or NIS Elements version AR 4.20.01 software for image capture and analysis. Concentrated cells (˜3 μl) on a glass slide under an 18 mm^2 glass coverslip were first scanned under phase contrast to localize cells. […] GFP/CFSE fluorescent Leishmania were further examined by using the FITC filter set. Images captured under different settings were merged by using the software programs mentioned. The filter sets (Chroma Technology Co., Brattleboro, Vt.) used were: (1) HQ620/60 (620-nm exciter), Q660LP (660-nm dichroic), and HQ700/80 (700-nm emitter) for phthalocyanines; and (2) HQ480/40 (480-nm exciter), Q505LP (505-nm dichroic), and HQ535/50 (535-nm emitter) for GFP and CFSE.

Leishmania tropica [2] = experiment: Microscopy of Leishmania photolysis after PC sensitization and red light; format: cell-based; conditions: PC1/PC2: followed by red light; PC3/PC4: with or without red light
Method: as §1
Control and PC-sensitized Leishmania were washed and suspended in HBSS-BSA. The cell suspensions in 24-well culture plates and monolayers of J774 macrophages in 25 cm^2 TC flasks were exposed from the bottom to red light (wavelengths >650 nm) via a red filter (Smith-Victor Co., Barlett, Ill., USA; part #650021) over a light box for 20-30 min at a fluence of 1-2 J cm^2.
Nikon Eclipse 80i and TE2000-S microscopes with CCD cameras were used with Metamorphosis (version 6.1) or NIS Elements version AR 4.20.01 software for image capture and analysis. Concentrated cells (˜3 μl) on a glass slide under an 18 mm^2 glass coverslip were first scanned under phase contrast to localize cells. […] GFP/CFSE fluorescent Leishmania were further examined by using the FITC filter set. Images captured under different settings were merged by using the software programs mentioned. […]

With “triethylene glycol substituted Zn(II)-phthalocyanine [PC4]” as the substance, how does the “uptake by Leishmania (PC fluorescence in cells)” value (Leishmania tropica [1]) read?
The value was “no uptake”.

What about the “motility and structural integrity after PC sensitization” value (Leishmania tropica [2]) of the same substance?
Its value is “retained their motility and cellular integrity”.
